Experimental data taken from patent US20260272983A1, “METHODS AND COMPOSITIONS FOR TREATING AUTOIMMUNE DISEASES” (priority 2023, published 2026).

System: subject having an autoimmune disease
Assay type: in vivo, human
Settings: IV cyclophosphamide regimen of TABLE 1, no fludarabine, before CAR T infusion
Source text: T cells are obtained from a subject having an autoimmune disease (for example, an autoimmune disease selected from (SLE), lupus nephritis, SLE with anti-dsDNA antibodies, pemphigus vulgaris (PV), mucosal PV, mucocutaneous PV, myasthenia gravis (MG), MuSK-associated MG, AChR MG, myositis, membranous nephropathy, anti-synthetase syndrome, dermatomyositis, immune mediated necrotizing myopathy, multiple sclerosis, neuromyelitis optica, chronic inflammatory demyelinating polyneuropathy, anti-NMDA Receptor encephalitis, Lambert-Eaton syndrome, pemphigus foliaceus, epidermolysis bullosa acquisita, bullous pemphigoid, Goodpasture's syndrome, rheumatoid arthritis, systemic sclerosis, anti-neutrophil cytoplasmic antibody (ANCA)-associated vasculitis, immune thrombocytopenic purpura, antiphospholipid syndrome, autoimmune hemolytic anemia, type 1 diabetes, Grave's disease, Hashimoto's disease, and Sjogren's syndrome). […]
A dose of CAR T cells (e.g., from 1×10^6 to 1×10^7 cells/kg bodyweight) is intravenously administered to the subject. The subject is monitored post-infusion for B-cell levels, white blood cell count, CAR T cell levels, and for autoimmune disease markers (e.g., autoantibody levels).

## O=P1(N(CCCl)CCCl)NCCCO1 (stereo not shown) [cyclophosphamide]
  effectiveness of the cyclophosphamide preconditioning regimen used prior to CD19-CAR T cell therapy in treating the autoimmune disease: effective in the treatment of the autoimmune disease
